One data set is described as follows: in vivo effect. The settings on record: po; % of control @ 30 mg/kg p.o.
The target of data set [1] is T1, cathepsin D (from human liver) (Homo sapiens, UniProt P07339).
T1 construct: cathepsin D (from human liver, Calbiochem); purchased Calbiochem; host or cells: human liver
Briefly: Cathepsin D fluorescent substrate kinetic assay. Format: biochemical. The settings on record: pH 5.5. The text has this: Cathepsin D and Cathepsin E Fluorescent Substrate Kinetic Assays
The MR121 fluorescence assays described below are based on the fact that MR121 forms a non-fluorescent ground state complex with tryptophan. In solution this formation occurs at millimolar concentrations of tryptophan. The mechanism can be used to design a generic biochemical assay for proteases. A substrate peptide is labeled at the N-terminus with tryptophan and at the C-terminus with the fluorophore MR121 (for cathepsin D the 10 amino acid peptide […]-MR121 was used; for cathepsin E, MR121-[…] was used). In absence of protease activity, the substrates remain intact and the MR121 fluorescence is reduced by the high local Trp-concentration. If the substrates are cleaved by the enzymes the MR121 fluorescence is recovered.
The fluorescent substrate cathepsin D and cathepsin E kinetic assays were performed at room temperature in 384-well microtiter plates (black with clear flat bottom, non binding surface plates from Corning) in a final volume of 51 μl. The test compounds were serially diluted in DMSO (15 concentrations, 1/3 dilution steps) and 1 μl of diluted compounds were mixed for 10 min with 40 μl of cathepsin D (from human liver, Calbiochem) diluted in assay buffer (100 mM sodium acetate, 0.05% BSA, pH 5.5; final concentration: 200 nM) or with 40 μl of recombinant human cathepsin E (R&D Systems) diluted in assay buffer (100 mM sodium acetate, 0.05% BSA, pH 4.5; final concentration: 0.01 nM). After addition of 10 μl of the cathepsin D substrate […]-MR121 diluted in cathepsin D assay buffer (final concentration: 300 nM) or 10 µl of the cathepsin E substrate MR121-[…] diluted in cathepsin E assay buffer (final concentration: 300 nM), the plates were strongly shaken for 2 minutes. The enzymatic reaction was followed in a plate: vision reader (Perkin Elmer) (excitation wavelength: 630 nm; emission: 695 nm) for at least 30 minutes in a kinetic measurement detecting an increase of MR121 fluorescence during the reaction time. The slope in the linear range of the kinetic was calculated and the IC50 of the test compounds were determined using a four parameter equation for curve fitting.

In the next data set the target is T2, CYP2D6 (Homo sapiens, UniProt P10635).
T2 construct: 0.2 mg/ml pooled human liver microsomes; from tissue; host or cells: pooled human liver microsomes
T2 sequence (P10635 whole entry): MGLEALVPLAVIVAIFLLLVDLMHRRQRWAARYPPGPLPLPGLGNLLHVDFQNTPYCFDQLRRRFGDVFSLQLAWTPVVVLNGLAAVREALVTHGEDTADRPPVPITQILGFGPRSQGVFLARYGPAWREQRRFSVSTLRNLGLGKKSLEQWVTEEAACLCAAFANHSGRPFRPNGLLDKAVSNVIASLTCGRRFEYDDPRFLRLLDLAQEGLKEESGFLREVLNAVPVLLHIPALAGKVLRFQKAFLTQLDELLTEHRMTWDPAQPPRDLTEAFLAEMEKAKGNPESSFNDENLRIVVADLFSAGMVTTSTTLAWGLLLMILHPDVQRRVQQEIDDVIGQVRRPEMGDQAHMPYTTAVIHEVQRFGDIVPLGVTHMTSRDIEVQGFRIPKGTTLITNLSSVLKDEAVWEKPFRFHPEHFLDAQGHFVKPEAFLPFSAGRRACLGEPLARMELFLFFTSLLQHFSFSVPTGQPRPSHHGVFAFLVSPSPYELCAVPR
Description: CYP inhibition assay, CYP2D6. Format: in vitro ADME. The settings on record: human liver microsomes, dextromethorphan; read-out: CYP IC50 2D6. On the procedure:
(§1) Inhibition of cytochromes P450 (CYPs) 2C9, 2D6 and 3A4 was assessed using human liver microsomes and CYP-selective substrate metabolism reactions. 50 μl incubations were made up containing (finally) 0.2 mg/ml pooled human liver microsomes, 5 μM substrate (diclofenac for CYP2C9 [4′ hydroxylase], dextromethorphan for CYP2D6 [O-demethylase] or midazolam for CYP3A4 [1′ hydroxylase]), 0.25 μL DMSO containing test inhibitor and NADPH regenerating system. […] Incubations were prewarmed to 37° C. for 10 minutes before initiation by addition of NADPH regenerating system. Incubations were quenched after 5 minutes (20 minutes for dextromethorphan) by addition of 50 μl cold acetonitrile containing 20 ng/ml 4-OH-diclofenac-13C6, 20 ng/mL dextrorphan-D3 and 20 ng/mL 1-OH-midazolam-D4. Quenched incubates were stored at −20° C. for at least 1 hour before centrifugation (20,000×g, 20 minutes). Supernatants were removed and diluted 1:1 with water prior to analysis using a RapidFire sample injector system and API4000 mass spectrometer. Peak areas for substrate, metabolite and stable-labelled metabolite standard were determined using MS/MS. The peak area ratios between the metabolite generated by the enzymatic reaction and the internal standard were used in subsequent calculations. The percentage of (DMSO) control activity was calculated for each incubate and IC50 values estimated by non-linear regression. Sulfaphenazole, quinidine or ketoconazole were tested in each CYP2C9, CYP2D6 or CYP3A4 inhibition experiment, respectively, to ensure assay sensitivity and reproducibility.

The target in another data set is T3, CYP2C9 (Homo sapiens, UniProt P11712).
T3 construct: 0.2 mg/ml pooled human liver microsomes; from tissue; host or cells: pooled human liver microsomes
T3 sequence (P11712 whole entry): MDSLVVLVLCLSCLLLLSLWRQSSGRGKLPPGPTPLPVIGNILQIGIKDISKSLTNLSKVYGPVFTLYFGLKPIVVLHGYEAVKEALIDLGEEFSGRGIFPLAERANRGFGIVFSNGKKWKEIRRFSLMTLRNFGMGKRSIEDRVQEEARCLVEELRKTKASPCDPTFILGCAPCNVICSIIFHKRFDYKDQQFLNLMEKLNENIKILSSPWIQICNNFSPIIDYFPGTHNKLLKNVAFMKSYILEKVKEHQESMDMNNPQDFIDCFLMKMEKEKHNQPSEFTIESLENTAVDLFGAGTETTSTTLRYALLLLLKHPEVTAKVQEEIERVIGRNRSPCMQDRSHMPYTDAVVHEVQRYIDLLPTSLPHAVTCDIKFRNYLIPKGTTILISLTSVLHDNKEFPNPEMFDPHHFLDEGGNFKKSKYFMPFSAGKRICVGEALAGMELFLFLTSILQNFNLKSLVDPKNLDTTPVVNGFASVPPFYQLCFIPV
Description: CYP inhibition assay, CYP2C9. Format: in vitro ADME. The settings on record: human liver microsomes, diclofenac; read-out: CYP IC50 2C9. On the procedure: as §1
(Liver microsomes are a subcellular fraction often used to study metabolism.)

The next data set addresses T4, BACE1 (Homo sapiens, UniProt P56817).
T4 construct: Human HEK293 cells which are stably transfected with a vector expressing a cDNA of the human APP wt gene (APP695); endogenous in cells; host or cells: HEK293 stably transfected with human APP695 wt
Briefly: Cellular Aβ-lowering assay (Aβ40 ELISA). The settings on record: HEK293 cells stably expressing human APP695; Aβ40 in culture supernatant; read-out: BACE1 cell act. Aβ40 IC50. Format: cell-based. In a few lines:
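Aβ40 in supernatant measured by sandwich ELISA (TMB, 450 nm) and quantified against a pure Aβ peptide standard curve.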
(ELISA stands for enzyme-linked immunosorbent assay.)

The target in the next data set is P-gP (Homo sapiens, UniProt P08183). Description: P-gP human efflux ratio. Format: in vitro ADME. Also noted: key: A = not or weak substrate.
Sequence of P-gP (P08183 whole entry): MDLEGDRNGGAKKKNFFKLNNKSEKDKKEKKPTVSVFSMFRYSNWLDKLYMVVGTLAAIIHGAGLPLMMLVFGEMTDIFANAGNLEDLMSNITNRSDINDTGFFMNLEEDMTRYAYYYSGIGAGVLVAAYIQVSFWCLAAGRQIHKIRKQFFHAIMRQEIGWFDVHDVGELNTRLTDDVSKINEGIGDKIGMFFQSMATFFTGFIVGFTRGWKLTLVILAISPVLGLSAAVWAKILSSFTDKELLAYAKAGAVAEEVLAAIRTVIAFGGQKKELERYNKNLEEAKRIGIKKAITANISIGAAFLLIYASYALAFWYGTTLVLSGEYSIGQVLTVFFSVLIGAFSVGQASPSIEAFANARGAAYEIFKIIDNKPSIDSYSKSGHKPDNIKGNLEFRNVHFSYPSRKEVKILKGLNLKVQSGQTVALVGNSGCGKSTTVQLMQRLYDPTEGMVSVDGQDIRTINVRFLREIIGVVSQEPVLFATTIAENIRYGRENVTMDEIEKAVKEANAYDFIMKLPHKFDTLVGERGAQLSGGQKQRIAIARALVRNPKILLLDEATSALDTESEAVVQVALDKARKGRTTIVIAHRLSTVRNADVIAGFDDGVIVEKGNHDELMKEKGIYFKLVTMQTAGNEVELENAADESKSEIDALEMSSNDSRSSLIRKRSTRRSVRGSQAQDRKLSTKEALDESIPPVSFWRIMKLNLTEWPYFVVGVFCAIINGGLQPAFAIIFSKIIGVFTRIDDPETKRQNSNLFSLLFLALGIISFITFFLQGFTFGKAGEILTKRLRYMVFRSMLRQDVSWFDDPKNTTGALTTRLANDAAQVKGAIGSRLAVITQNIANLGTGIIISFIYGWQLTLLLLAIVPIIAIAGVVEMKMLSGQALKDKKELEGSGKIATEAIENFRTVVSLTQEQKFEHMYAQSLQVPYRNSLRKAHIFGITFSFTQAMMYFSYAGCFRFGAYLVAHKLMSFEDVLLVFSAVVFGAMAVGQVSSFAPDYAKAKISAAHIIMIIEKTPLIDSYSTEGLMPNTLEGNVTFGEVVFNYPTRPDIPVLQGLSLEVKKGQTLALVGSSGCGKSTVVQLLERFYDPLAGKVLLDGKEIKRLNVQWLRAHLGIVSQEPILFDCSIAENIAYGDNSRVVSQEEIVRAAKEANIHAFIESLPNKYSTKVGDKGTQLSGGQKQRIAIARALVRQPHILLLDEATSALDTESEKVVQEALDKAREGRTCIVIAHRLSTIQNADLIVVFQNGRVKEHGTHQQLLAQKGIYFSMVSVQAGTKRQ
For another data set, the target named is T5, hERG channel (Homo sapiens, UniProt Q12809).
T5 construct: expressed in transfected cells; host or cells: CHO
T5 sequence (Q12809 whole entry): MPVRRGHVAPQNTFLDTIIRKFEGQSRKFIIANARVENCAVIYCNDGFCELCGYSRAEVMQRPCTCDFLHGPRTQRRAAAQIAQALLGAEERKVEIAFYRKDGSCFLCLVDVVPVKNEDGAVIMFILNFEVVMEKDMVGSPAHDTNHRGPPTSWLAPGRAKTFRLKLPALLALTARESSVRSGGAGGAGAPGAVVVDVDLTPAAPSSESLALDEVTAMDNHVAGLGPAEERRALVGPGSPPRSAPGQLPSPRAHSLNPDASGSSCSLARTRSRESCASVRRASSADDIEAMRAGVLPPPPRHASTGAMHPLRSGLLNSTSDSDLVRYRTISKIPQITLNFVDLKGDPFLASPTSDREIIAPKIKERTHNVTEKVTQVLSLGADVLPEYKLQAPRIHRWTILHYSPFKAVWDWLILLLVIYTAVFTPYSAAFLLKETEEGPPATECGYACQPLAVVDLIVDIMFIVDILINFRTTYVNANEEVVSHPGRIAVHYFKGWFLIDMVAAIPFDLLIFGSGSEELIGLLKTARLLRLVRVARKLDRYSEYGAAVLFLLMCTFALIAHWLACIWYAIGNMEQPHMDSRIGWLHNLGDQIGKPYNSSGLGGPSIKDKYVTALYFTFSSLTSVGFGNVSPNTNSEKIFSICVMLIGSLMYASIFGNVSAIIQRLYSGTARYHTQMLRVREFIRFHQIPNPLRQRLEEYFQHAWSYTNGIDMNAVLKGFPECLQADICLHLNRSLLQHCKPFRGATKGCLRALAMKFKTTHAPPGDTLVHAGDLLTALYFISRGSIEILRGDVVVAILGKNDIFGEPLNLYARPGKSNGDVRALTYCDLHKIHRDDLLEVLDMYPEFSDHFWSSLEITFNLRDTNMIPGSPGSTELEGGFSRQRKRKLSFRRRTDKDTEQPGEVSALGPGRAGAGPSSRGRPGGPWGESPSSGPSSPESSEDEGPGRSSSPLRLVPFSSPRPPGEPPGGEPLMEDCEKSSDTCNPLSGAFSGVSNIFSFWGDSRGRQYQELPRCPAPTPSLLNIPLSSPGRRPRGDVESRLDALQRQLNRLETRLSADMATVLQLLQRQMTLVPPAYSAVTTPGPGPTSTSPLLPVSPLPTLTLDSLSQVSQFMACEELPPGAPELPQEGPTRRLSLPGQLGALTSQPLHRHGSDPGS
Description: PatchXpress hERG inhibition assay. It counts as cell-based. The settings on record: % inhibition @ 1 μM. An excerpt:
PatchXpress hERG Inhibition Assay
For patch clamp electrophysiology, the external buffer contained (in mM): 150 NaCl, 10 Hepes, 4 KCl, 1.2 CaCl2, 1 MgCl2, pH 7.4 adjusted with […] and the internal recording solution contained (in mM): 140 KCl, 6 EGTA, 5 Hepes, MgCl2, 5 ATP-Na2, pH 7.2 adjusted with KOH. Once the cell was loaded in the recording chamber and formed a giga ohm seal with the planar glass electrodes (Sealchip™), a whole-cell configuration was achieved by rupturing the cell membrane. The membrane potential was then clamped at −80 mV and the hERG channel activated by a 1-second depolarizing pulse delivered at 0.1 Hz, the hERG current was measured during the 500 ms-repolarizing pulse to −40 mV. […] The inhibition of hERG current at each concentration was normalized to that recorded in the vehicle control, and fitted with Hill equation to calculate IC20 and/or IC50.

Where only a bound is given, the exact number is not on record here.

As a reminder, the IC50 is the concentration that inhibits the measured activity by half.

T1 sequence (P07339 65-412): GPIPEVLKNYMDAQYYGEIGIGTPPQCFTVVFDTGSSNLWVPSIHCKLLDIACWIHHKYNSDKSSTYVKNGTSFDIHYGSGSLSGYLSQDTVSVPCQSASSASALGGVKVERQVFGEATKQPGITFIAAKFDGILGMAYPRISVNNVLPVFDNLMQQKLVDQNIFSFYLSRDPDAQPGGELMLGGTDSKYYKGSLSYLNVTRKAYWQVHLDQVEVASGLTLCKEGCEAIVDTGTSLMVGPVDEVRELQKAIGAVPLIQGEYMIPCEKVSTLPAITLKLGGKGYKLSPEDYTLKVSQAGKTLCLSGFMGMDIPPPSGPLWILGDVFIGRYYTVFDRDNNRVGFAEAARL
T4 sequence (P56817 46-501): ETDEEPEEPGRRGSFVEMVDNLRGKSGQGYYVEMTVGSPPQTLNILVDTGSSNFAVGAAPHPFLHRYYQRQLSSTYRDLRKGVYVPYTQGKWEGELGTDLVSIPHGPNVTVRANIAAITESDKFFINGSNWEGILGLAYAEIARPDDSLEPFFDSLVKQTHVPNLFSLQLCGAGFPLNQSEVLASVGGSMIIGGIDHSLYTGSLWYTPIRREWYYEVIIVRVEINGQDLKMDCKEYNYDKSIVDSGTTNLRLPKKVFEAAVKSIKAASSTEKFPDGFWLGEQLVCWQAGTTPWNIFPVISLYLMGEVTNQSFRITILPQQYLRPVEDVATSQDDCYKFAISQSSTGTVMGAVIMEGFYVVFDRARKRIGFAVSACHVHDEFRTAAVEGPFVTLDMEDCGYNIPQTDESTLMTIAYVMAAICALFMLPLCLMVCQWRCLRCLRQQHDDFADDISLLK

Consider `C[C@]1(c2cc(NC(=O)c3ncc(C#N)cc3Cl)ccc2F)N=C(N)OCC1(F)F` [Example 39, 3-Chloro-5-cyano-pyridine-2-carboxylic acid [3-((R)-2-amino-5,5-difluoro-4-methyl-5,6-dihydro-4H-[1,3]oxazin-4-yl)-4-fluoro-phenyl]-amide], for which the response vs control in vivo at 30 mg/kg in “in vivo effect” was less than 50%. The IC50 in data set [1] is greater than 200 µM; at CYP2D6, greater than 10 µM; at CYP2C9 it was greater than 10 µM.

With `CC1(C)OC(N)=N[C@](C)(c2cc(NC(=O)c3ccc(C#N)cn3)ccc2F)C1(F)F` [Example 21, 5-Cyano-pyridine-2-carboxylic acid [3-((R)-2-amino-5,5-difluoro-4,6,6-trimethyl-5,6-dihydro-4H-[1,3]oxazin-4-yl)-4-fluoro-phenyl]-amide], the IC50 at BACE1 is 0.007 µM; in data set [1], greater than 200 µM; on CYP2D6 it was greater than 10 µM; at CYP2C9, greater than 10 µM. For the same compound, the “P-gP human, efflux ratio: substrate category” value (“P-gP human, efflux ratio” below) at P-gP is given as “A”. In “in vivo effect”, this compound yielded a response vs control in vivo at 30 mg/kg of less than 50%.

As to `C[C@]1(c2cc(NC(=O)c3ccc(Cl)cn3)ccc2F)N=C(N)OCC1(F)F` [Example 1, 5-Chloro-pyridine-2-carboxylic acid [3-((R)-2-amino-5,5-difluoro-4-methyl-5,6-dihydro-4H-[1,3]oxazin-4-yl)-4-fluoro-phenyl]-amide], the hERG entry on hERG channel is “A (A = less than 26% inhibition @ 1 μM)”. This compound returned a response vs control in vivo at 30 mg/kg in the data set “in vivo effect” of less than 50%. The 50% inhibitory concentration (IC50) in data set [1] is greater than 200 µM; on CYP2D6, 1 to 10 µM; at CYP2C9, greater than 10 µM.

For `CC1(C)OC(N)=N[C@](C)(c2cc(NC(=O)c3ncc(C(F)(F)F)cc3Cl)ccc2F)C1(F)F` [Example 20, 3-Chloro-5-trifluoromethyl-pyridine-2-carboxylic acid [3-((R)-2-amino-5,5-difluoro-4,6,6-trimethyl-5,6-dihydro-4H-[1,3]oxazin-4-yl)-4-fluoro-phenyl]-amide], the 50% inhibitory concentration (IC50) is 0.05 µM on BACE1, greater than 200 µM in data set [1], 1 to 10 µM at CYP2D6 and 1 to 10 µM on CYP2C9. Moreover, the “P-gP human, efflux ratio” value at P-gP is on record as “A”. The hERG entry on hERG channel is on record as “A (A = less than 26% inhibition @ 1 μM)”. Besides, the response vs control in vivo at 30 mg/kg in “in vivo effect” is less than 50%.

On to `C[C@]1(c2cc(NC(=O)c3ncc(C(F)(F)F)cc3Cl)ccc2F)N=C(N)OCC1(F)F` [Example 5, 3-Chloro-5-trifluoromethyl-pyridine-2-carboxylic acid [3-((R)-2-amino-5,5-difluoro-4-methyl-5,6-dihydro-4H-[1,3]oxazin-4-yl)-4-fluoro-phenyl]-amide], for which the 50% inhibitory concentration (IC50) at BACE1 is 0.043 µM; in data set [1], greater than 200 µM; at CYP2D6, 1 to 10 µM. Further, at P-gP, the “P-gP human, efflux ratio” value was “A”. Also, the hERG result on hERG channel is “A (A = less than 26% inhibition @ 1 μM)”. This compound yielded a response vs control in vivo at 30 mg/kg in “in vivo effect” of less than 50%.

With `CC1(C)OC(N)=N[C@](C)(c2cc(NC(=O)c3ncc(C#N)cc3Cl)ccc2F)C1(F)F` [Example 22, 3-Chloro-5-cyano-pyridine-2-carboxylic acid [3-((R)-2-amino-5,5-difluoro-4,6,6-trimethyl-5,6-dihydro-4H-[1,3]oxazin-4-yl)-4-fluoro-phenyl]-amide], the half-maximal inhibitory concentration (IC50) on BACE1 is 0.007 µM; in data set [1] it was greater than 200 µM; on CYP2D6, 1 to 10 µM; at CYP2C9, greater than 10 µM. Moreover, the response vs control in vivo at 30 mg/kg in “in vivo effect” is less than 50%.

As for `C[C@]1(c2cc(NC(=O)c3ncc(Cl)cc3Cl)ccc2F)N=C(N)OCC1(F)F` [Example 8, 3,5-Dichloro-pyridine-2-carboxylic acid [3-((R)-2-amino-5,5-difluoro-4-methyl-5,6-dihydro-4H-[1,3]oxazin-4-yl)-4-fluoro-phenyl]-amide], the IC50 on BACE1 is 0.015 µM; in data set [1] it was greater than 170 µM; at CYP2D6, greater than 10 µM; on CYP2C9 it was greater than 10 µM. In addition, the hERG entry on hERG channel is on record as “A (A = less than 26% inhibition @ 1 μM)”. Further, the response vs control in vivo at 30 mg/kg in the data set “in vivo effect” was less than 50%.

The record behind these values is US8389513B2, “2-amino-5,5-difluoro-5,6-dihydro-4H-[1,3]oxazin-4-yl)-phenyl]-amides” (Hoffmann-La Roche Inc., priority 2009, dated 2013).
